{"source": "paper PMC10313368", "about": "(The Journal of Clinical Investigation, 2023)", "key": {"HIF-2α": {"molecular_target": "HIF-2α (Homo sapiens, UniProt Q99814)", "sequence (Q99814 whole entry)": "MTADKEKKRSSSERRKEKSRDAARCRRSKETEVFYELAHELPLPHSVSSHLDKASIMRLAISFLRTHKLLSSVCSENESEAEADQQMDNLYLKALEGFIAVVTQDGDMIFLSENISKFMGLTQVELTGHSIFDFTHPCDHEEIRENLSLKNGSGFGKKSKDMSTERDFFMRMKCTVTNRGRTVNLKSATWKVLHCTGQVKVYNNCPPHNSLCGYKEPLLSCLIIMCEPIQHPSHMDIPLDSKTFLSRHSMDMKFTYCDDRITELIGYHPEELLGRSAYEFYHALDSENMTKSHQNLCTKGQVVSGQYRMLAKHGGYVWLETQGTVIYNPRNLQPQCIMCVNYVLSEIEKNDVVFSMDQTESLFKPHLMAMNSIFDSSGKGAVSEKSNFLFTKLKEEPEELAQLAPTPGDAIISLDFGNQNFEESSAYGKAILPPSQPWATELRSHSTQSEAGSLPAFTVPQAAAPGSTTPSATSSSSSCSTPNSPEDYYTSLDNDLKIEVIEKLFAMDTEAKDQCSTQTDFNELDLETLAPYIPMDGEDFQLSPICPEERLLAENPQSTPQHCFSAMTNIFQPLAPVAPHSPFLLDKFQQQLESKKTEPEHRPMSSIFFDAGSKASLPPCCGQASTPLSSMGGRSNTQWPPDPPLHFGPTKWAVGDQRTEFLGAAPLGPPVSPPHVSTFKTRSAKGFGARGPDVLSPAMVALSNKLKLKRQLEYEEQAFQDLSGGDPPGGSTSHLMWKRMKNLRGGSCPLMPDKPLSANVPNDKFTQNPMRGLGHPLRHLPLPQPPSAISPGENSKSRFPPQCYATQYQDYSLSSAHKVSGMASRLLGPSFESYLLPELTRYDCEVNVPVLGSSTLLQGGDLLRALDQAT", "assay": "Immunoblot of HIF-2α accumulation in D120 hiPSC-derived retinal organoids in 1% O2", "type": "cell-based", "set-up": "endogenous in cells", "details": "1% O2 12 hours, 32-134D", "experimental": "An hiPSC line derived from CD34^+ cord blood was used in this study (A18945, Thermo Fisher Scientific) ([70]). Undifferentiated hiPSCs and derived retinal organoids were routinely tested for mycoplasma contamination by PCR. Cell culture, retinal differentiation, and organoid formation were conducted as previously described ([71]). Retinal organoids at D120 were used for experiments.\nImmunoblot assays. Cells, neurosensory retina, and D120 retinal organoid lysates were subjected\nto 4–15% gradient SDS/PAGE (Invitrogen). Immunoblot (Western blot or WB) assays were\nperformed as previously described (1). […]"}, "[1]": {"tested_on": "STZ-induced diabetic mice", "assay": "Vascular permeability by Evans blue tracer method in STZ mice", "type": "in vivo, mouse", "details": "single intraocular injection 70 ng 32-134D", "experimental": "STZ-induced diabetes mouse model. 8-to-10 week-old male mice received an IP injection of STZ at 40 mg/kg of body weight in 0.1M of citrate buffer (pH 4.5) for 5 consecutive days. Normal chow and 10% sucrose water were provided during this period. 10% sucrose was discontinued and replaced with regular water on experimental day 6. […]\nIntraocular injections. Intravitreal injections were performed with a PLI-100A Pico-liter Microinjector (Warner Instruments, Harvard Bioscience) using pulled-glass micropipettes. Each micropipette was calibrated to deliver a 1 μl volume on depression of a foot switch. […]\nImages were captured with Zeiss fluorescent microscope. Eight fields per eye (2 fields per petal) including area of neovascularization were selected and fluorescence intensity was measured by ImageJ software. […]\nThe eyes were enucleated and immediately immersed in 4% (wt/vol) paraformaldehyde for 2 hours at room temperature. […] Images were captured by Zeiss fluorescent microscope or confocal microscopy and fluorescence was quantified by the image J software (National Institutes […]\nof Health, Bethesda, MD). Blinded quantification of the number of leaking vessels was performed by manual counting of major leakage from capillaries from retinas of each group. […] Random fields were chosen from retinas where leakages were absent to determine baseline fluorescence that arise from capillaries. […]"}, "MIO-M1 cells": {"tested_on": "MIO-M1 cells", "assay": "mRNA angiogenesis array (TaqMan Array qPCR) in MIO-M1 cells", "type": "cell-based, human", "experimental": "Angiogenesis array. Total RNA was isolated from MIO-MI cells (8 hours) and HUVECs (16 […]\ncDNA was prepared with QuantiTect® Reverse Transcription Kit (Qiagen, Cat# 205311). RT-qPCR assay was performed with pre-configured TaqMan Array 96-Well FAST Plate for human angiogenic gene expression (Applied Biosystems, Inc) following the manufacture’s protocol. Each plate contains pre-defined genes including 18S, GAPDH and HPRT1 endogenous controls.\nTaqMan Array plates were prepared by loading on each well 5 μl of cDNA sample (30 ng) with nuclease-free water and 5 μl of TaqMan™ Fast Advanced Master Mix (Applied Biosystem, Cat# […]\n4444554). The reaction was performed using the QuantStudio™ 3 Flex Real‐Time PCR System as follows: 2 minutes at 50°C (stage 1); 10 minutes at 95°C (stage 2); 15 seconds at 95°C and 1 minutes at 60°C for 40 cycles (stage 3). The data were analyzed by using HPRT1 as endogenous […]\nThe clustering heatmaps were produced with “pheatmap” library in R with scale = row and clustering method = complete.\nHUVEC cells, Euclidean distance was used to quantify the difference in qPCR screening. The Euclidean distance was calculated using “dist” function from R’s default stat library that measures"}, "[2]": {"details": "MIO-M1, hypoxia+32-134D, 8 hours, Figure 7G"}}, "data": [{"smiles": "Brc1ccc2c(-c3csc(-c4c[nH]c5c(Br)cccc45)n3)c[nH]c2c1", "note": "[32-134D, 4-(6-bromo-1H-indol-3-yl)-2-(7-bromo-1H-indol-3-yl)thiazole]", "values": [{"measurement": "accumulation of HIF-2α protein", "setting": "HIF-2α", "result": "effectively prevented accumulation"}, {"measurement": "vascular hyperpermeability in STZ mice (in words)", "setting": "[1]", "result": "effectively inhibited vascular hyperpermeability"}, {"measurement": "reduction in the Euclidean distance between control and hypoxic cell angiogenic gene expression", "setting": "MIO-M1 cells; MIO-M1, from 73 to 31", "result": 58, "unit": "%"}, {"measurement": "mRNA transcripts of angiogenic genes versus cells cultured in hypoxia (in words)", "setting": "MIO-M1 cells; MIO-M1, hypoxia + 32-134D", "result": "substantially reduced"}, {"measurement": "ANG,RNASE4, angiogenesis array expression (control = 1)", "setting": "MIO-M1 cells; [2]", "result": 2.068}, {"measurement": "ANGPTL1, angiogenesis array expression (control = 1)", "setting": "MIO-M1 cells; [2]", "result": 0.8991}, {"measurement": "ANGPTL4, angiogenesis array expression (control = 1)", "setting": "MIO-M1 cells; [2]", "result": 30.9206}, {"measurement": "CDH5, angiogenesis array expression (control = 1)", "setting": "MIO-M1 cells; [2]", "result": 0.6144}, {"measurement": "CEACAM1, angiogenesis array expression (control = 1)", "setting": "MIO-M1 cells; [2]", "result": 1.055}, {"measurement": "COL15A1, angiogenesis array expression (control = 1)", "setting": "MIO-M1 cells; [2]", "result": 1.01}, {"measurement": "CSF3, angiogenesis array expression (control = 1)", "setting": "MIO-M1 cells; [2]", "result": 0.9339}, {"measurement": "FIGF, angiogenesis array expression (control = 1)", "setting": "MIO-M1 cells; [2]", "result": 1.127}, {"measurement": "HGF, angiogenesis array expression (control = 1)", "setting": "MIO-M1 cells; [2]", "result": 0.5689}, {"measurement": "IL8, angiogenesis array expression (control = 1)", "setting": "MIO-M1 cells; [2]", "result": 1.45}, {"measurement": "TIMP2, angiogenesis array expression (control = 1)", "setting": "MIO-M1 cells; [2]", "result": 0.9298}, {"measurement": "TIMP3, angiogenesis array expression (control = 1)", "setting": "MIO-M1 cells; [2]", "result": 0.7612}, {"measurement": "TNMD, angiogenesis array expression (control = 1)", "setting": "MIO-M1 cells; [2]", "result": 0.5729}, {"measurement": "TNNI1, angiogenesis array expression (control = 1)", "setting": "MIO-M1 cells; [2]", "result": 0.511}, {"measurement": "VEGFA, angiogenesis array expression (control = 1)", "setting": "MIO-M1 cells; [2]", "result": 8.239}]}]}
